Test results as given in patent publication US12590294B2, “Process for producing cardiomyocytes” (Oxford University Innovation Limited, priority 2020, dated 2026).

Tests used:
[1] = system: hiPSC derived atrial cardiomyocytes; assay: Ca2+ transient imaging (Fluo4 optical mapping) with adrenergic agonists and antagonists; assay type: cell-based, human
Method: (§1) Optical mapping experiments were carried out after the cells started to contract. The responsiveness of the derived CMs in the experimental group to β and α adrenergic receptor agonists and antagonists was measured. Intracellular calcium transients were analysed using a 128×128 EMCCD camera (Photometrics, Tucson, USA). The derived CMs were pre-loaded with 1 μM Fluo4 (Molecular Probes by Life Technologies) dissolved in DMSO for 15 min at 37° C. in CMM. Calcium transients of the derived CMs were first recorded without the addition of the drugs as control. Recordings were then taken at 0 min, 5 min, 10 min and 15 min after 100 nM Isoprenaline (ISO) treatment. Using the same method, the responsiveness of the derived CMs in the experimental group to 10 μM Phenylephrine (PE) treatment was tested. […] Recordings were taken in the same way as described above. Similarly, the cells were pre-treated with 1 μM Prazosin dissolved in Fluo4 loading solution before a treatment of 10 μM PE. Metamorph was used to take the recordings, and 4000 or 8000 frames were taken for each recording, with a frame rate of 100 Hz (for 4000 frames) or 333.33 Hz (for 8000 frames). Regions of interest were selected using ImageJ. Raw traces were analysed and baseline corrections were conducted using Clampfit. Calcium transient amplitude change was calculated based on averaged trace. Part of the analysis was performed using custom MATLAB algorithms. To calculate beat-to-beat CaT50, the mean signal was segmented into individual beats. Representative regions were defined as two 16 by 16 pixel regions.
as §1, with “β and a adrenergic receptor” for “β and α adrenergic receptor”, “traces were analyzed and baseline” for “traces were analysed and baseline”, “was performed by the collaborator group from University of Birmingham using custom” for “was performed using custom”
We also tested whether hiPSC derived atrial cardiomyocytes responded to adrenoceptor stimulation by a or p adrenoceptor agonists. The presence of a functional al-adrenoceptor signaling pathway was first tested by exposure of hiPSC derived atrial cardiomyocytes to phenylephrine, which in adult atrial CMs increases the amplitude of Ca^2+ transients. Phenylephrine is an al-adrenoceptor agonist coupled to Gq and the mechanism of increase in Ca^2+ transient amplitude is associated with an increase cellular IP3 levels. Atrial cardiomyocytes from Days 25-30 post initiation of differentiating human iPSC derived atrial cardiomyocytes were used to assess the effect of phenylephrine on Ca^2+ transient amplitude. […]

[2] = system: monolayer HiPSC-AM sheets; assay: Optical mapping of monolayer HiPSC-AM sheets, adrenergic stress induced CaT alternans; assay type: cell-based, human; details: 100 nM ISO; regular pacing at 0.5-1 Hz
Method: Optical mapping experiments were carried out after the cells started to contract. The responsiveness of the derived CMs in the experimental group to β and a adrenergic receptor agonists and antagonists was measured. Intracellular calcium transients were analysed using a 128×128 EMCCD camera (Photometrics, Tucson, USA). The derived CMs were pre-loaded with 1 μM Fluo4 (Molecular Probes by Life Technologies) dissolved in DMSO for 15 min at 37° C. in CMM. Calcium transients of the derived CMs were first recorded without the addition of the drugs as control. Recordings were then taken at 0 min, 5 min, 10 min and 15 min after 100 nM Isoprenaline (ISO) treatment. Using the same method, the responsiveness of the derived CMs in the experimental group to 10 μM Phenylephrine (PE) treatment was tested. In adrenergic receptor antagonist tests, the cells were pre-treated with 600 nM CGP20712A (CGP) (Sigma) dissolved in Fluo4 loading solution prior to 100 nM ISO treatment. Recordings were taken in the same way as described above. Similarly, the cells were pre-treated with 1 μM Prazosin dissolved in Fluo4 loading solution before a treatment of 10 μM PE. […] Raw traces were analyzed and baseline corrections were conducted using Clampfit. Calcium transient amplitude change was calculated based on averaged trace. […]

**Q.** `Cn1cc(C(F)(F)F)nc1-c1ccc(OCC(O)CNCCOc2ccc(O)c(C(N)=O)c2)cc1` (centres unmarked) [CGP20712A] was tested. Which “effects of adrenergic stimulation after β-adrenergic antagonist pre-treatment” value ([1]; 600 nM GCP pre-treated, recorded 10 min after 10 uM PE (so in the source)) did it give?
**A.** abolished

**Q.** What about the “effect on the amplitude of Ca2+ transients, antagonist by itself” value ([1]; CGP20712A 300 nM alone) of the same molecule?
**A.** no effect

**Q.** What does the source list for `CNC[C@H](O)c1cccc(O)c1` [phenylephrine]?
**A.** effect on Ca2+ transient decay time ([1]; 10 μM phenylephrine): no effect; effect on Ca2+ transient rise time ([1]; 10 μM phenylephrine): no effect; change in the amplitude of Ca2+ transients in the presence of prazosin ([1]; 10 μM phenylephrine in the presence of prazosin, n=5 batch of cells): did not cause any significant change; increase in Ca2+ transient amplitude ([1]; 10 μM phenylephrine, fluo-4 fluorescence, Days 25-30, n=5 batch of cells): 28±10%

**Q.** With `CC(C)NCC(O)c1ccc(O)c(O)c1` (centres unmarked) [isoproterenol] as the molecule, how does the “increase in the amplitude of Ca2+ transients” value ([1]; isoproterenol 100 nM, n=5 batch of cells) read?
**A.** 26±5%

**Q.** What about the “effect on the amplitude of Ca2+ transients when CGP20712A was present” value ([1]; isoproterenol with CGP20712A (300 nM) present, n=5 batch of cells) of the same molecule?
**A.** without effect

**Q.** And the CaT alternans [2]?
**A.** occurred

**Q.** What does the source list for `COc1cc2nc(N3CCN(C(=O)c4ccco4)CC3)nc(N)c2cc1OC` [prazosin]?
**A.** effect on the amplitude of Ca2+ transients, antagonist by itself ([1]; 1 μM prazosin alone): no effect; effects of adrenergic stimulation by 10 uM PE after antagonist pre-treatment ([1]; 1 uM prazosin pre-treated, recorded 10 min after 10 uM PE): abolished
